This is an account of results in EPA's ToxRefDB 2.

Data set [1] relates to rat. The conditions noted are these: Multigenerational reproductive toxicity study, sprague dawley, Oral, Gavage/Intubation, dose end: 1 generation, group: parental.
Data set [2] has as its system rat. To be noted: Prenatal developmental toxicity study, sprague dawley, Oral, Gavage/Intubation, dose end: 15 GD, group: maternal.
Data set [3] concerns rat. To be noted: Subchronic oral toxicity in rodents, sprague dawley, Gavage/Intubation, dose end: 30 day, group: systemic, systemic / in life observation / clinical signs / soft stools + systemic / in life observation / clinical signs / urine, discoloration.
Another data set deals with rabbit. The conditions noted are these: Prenatal developmental toxicity study, chinchilla, Oral, Gavage/Intubation, dose end: 19 GD.
For data set [4], the system named is dog. To be noted: Chronic toxicity; beagle; Oral; Feed; dose end: 12 month; group: systemic; systemic / in life observation / body weight / body weight gain + systemic / in life observation / food consumption / food consumption + ….
For data set [5], the system named is mouse. The conditions noted are these: Carcinogenicity; other; Oral; Feed; dose end: 18 month; group: systemic; systemic / in life observation / body weight / body weight + systemic / in life observation / body weight / body weight gain + systemic / in….
The subject of data set [6] is rat. To be noted: Subchronic oral toxicity in rodents, other, Feed, dose end: 3 month, group: systemic.
In data set [7] the test system is rat. The conditions noted are these: Prenatal developmental toxicity study, other, Oral, Gavage/Intubation, dose end: 15 GD.
The subject of data set [8] is dog. To be noted: Subchronic oral toxicity in nonrodent, beagle, Feed, dose end: 13 week, group: systemic, systemic / pathology microscopic / liver / infiltration cellular + systemic / pathology microscopic / liver / necrosis + systemic / ….
Data set [9] has as its system rat. To be noted: Prenatal developmental toxicity study, sprague dawley, Oral, Gavage/Intubation, dose end: 15 GD.
Data set [10] relates to mouse. The conditions noted are these: Prenatal developmental toxicity study, cd1, Oral, Gavage/Intubation, dose end: 15 GD.
The test system of data set [11] is rat. To be noted: Chronic toxicity, fischer, Oral, [Not Specified], dose end: 24 month, group: systemic.
The test system of data set [12] is rat. To be noted: Subchronic oral toxicity in rodents, Feed, dose end: 13 week, group: systemic, systemic / clinical chemistry / aspartate aminotransferase (ast/sgot) / aspartate aminotransferase (ast/sgot) + systemic / clinical ….
Data set [13] has as its system dog. The conditions noted are these: Chronic toxicity; beagle; Oral; Feed; dose end: 52 week; group: systemic; systemic / in life observation / body weight / body weight + systemic / in life observation / food consumption / food consumption + systemic….
Data set [14] deals with rat. To be noted: Subchronic oral toxicity in rodents, fischer, Feed, dose end: 13 week, group: systemic, systemic / clinical chemistry / alanine aminotransferase (alt/sgpt) / alanine aminotransferase (alt/sgpt) + systemic / clinical chemistry / ….
Data set [15] relates to rat. The conditions noted are these: Subchronic oral toxicity in rodents, fischer, Gavage/Intubation, dose end: 14 week.
In data set [16] the test system is mouse. The conditions noted are these: Subchronic oral toxicity in rodents, b6c3f1, Gavage/Intubation, dose end: 14 week, group: systemic.
Data set [17] has as its system mouse. The conditions noted are these: Carcinogenicity; b6c3f1; Oral; Gavage/Intubation; dose end: 2 year; group: systemic; systemic / pathology microscopic / bone marrow / hyperplasia + systemic / pathology microscopic / liver / hypertrophy + systemic / pathology….
For data set [18], the system named is rat. The conditions noted are these: Carcinogenicity; fischer; Oral; Gavage/Intubation; dose end: 2 year; group: systemic; systemic / pathology microscopic / kidney / nephropathy + systemic / pathology microscopic / liver / clear cell focus + systemic / pathology….
[19] abbreviates: systemic / clinical chemistry / albumin / albumin + systemic / clinical chemistry / albumin-globulin ratio / albumin-globulin ratio + ….
[20] abbreviates: systemic / clinical chemistry / cholesterol / cholesterol.
The mark [21] stands for this setting: systemic / in life observation / clinical signs / salivation + systemic / in life observation / clinical signs / soft stools + systemic / in….
The mark [22] stands for this setting: group: developmental, developmental / developmental malformation / bone / unossified.
Where [23] appears, read: group: maternal, systemic / in life observation / mortality / mortality.
[24] abbreviates: group: maternal, systemic / in life observation / mortality / mortality + systemic / in life observation / clinical signs / reduced motor activity + systemic….
Where [25] appears, read: systemic / pathology microscopic / urinary bladder / hyperplasia + systemic / clinical chemistry / bilirubin / total bilirubin.
The mark [26] stands for this setting: systemic / pathology microscopic / urinary bladder / hyperplasia + systemic / pathology microscopic / kidney / atrophy + systemic / ….
[27] abbreviates: group: developmental, developmental / developmental malformation / bone / bipartite ossification + developmental / developmental malformation / bone / dumbbell ….
Where [28] appears, read: group: maternal, systemic / in life observation / body weight / body weight gain + systemic / in life observation / clinical signs / odorous urine + systemic….
Where [29] appears, read: group: developmental, systemic / in life observation / body weight / fetal weight.
Setting [30] is: group: maternal, systemic / in life observation / body weight / body weight gain + systemic / in life observation / clinical signs / fur (altered appearance….
Where [31] appears, read: group: maternal, systemic / in life observation / mortality / mortality + systemic / organ weight / liver / absolute + systemic / organ weight / uterus / nos.
[32] abbreviates: systemic / pathology microscopic / testes / atrophy.
Setting [33] is: group: maternal, reproductive / reproductive performance / estrous cycle / abnormal.
The mark [34] stands for this setting: group: systemic, systemic / clinical chemistry / alanine aminotransferase (alt/sgpt) / alanine aminotransferase (alt/sgpt) + systemic / clinical chemistry / ….
Setting [35] is: systemic / hematology / heinz body / heinz body + systemic / hematology / methemoglobin / methemoglobin + systemic / in life observation / ….
The mark [36] stands for this setting: systemic / organ weight / liver / absolute + systemic / organ weight / liver / relative to body weight + systemic / pathology microscopic / ….

Usually LOAEL stands for the lowest dose or exposure tested at which an adverse effect was seen. By NOAEL is commonly meant the highest dose or exposure tested at which no adverse effect was seen.

With `O=S(=O)([O-])C(F)(F)C(F)(F)C(F)(F)C(F)(F)C(F)(F)C(F)(F)F.[K+]` [PFHS-K], in the data set with rat [1] (setting [19]), the LOAEL is > 10 mg/kg/day and the NOAEL was ≥ 10 mg/kg/day. Also, in the data set on rat [1] (setting [20]), the LEL came to 0.3 mg/kg/day and the NEL is < 0.3 mg/kg/day.

`O=C(O)c1c(Cl)c(Cl)c(C(=O)O)c(Cl)c1Cl` [Chlorthal]: in the data set on rat [2] (systemic / in life observation / clinical signs / salivation + systemic / in life observation / clinical signs / soft stools), the LOAEL worked out at 2500 mg/kg/day. Moreover, in the data set with rat [2] (setting [21]), the LEL came to 2500 mg/kg/day, the NEL amounted to 1250 mg/kg/day and the NOAEL was 1250 mg/kg/day. For the same compound, in the data set on rat [3], the LEL is 2000 mg/kg/day, the LOAEL was 2000 mg/kg/day, the NEL amounted to 500 mg/kg/day and the NOAEL came to 500 mg/kg/day.

With `CCCCCC(C)OC(=O)COc1ccc(Cl)c2cccnc12` (stereo unspecified) [Cloquintocet-mexyl], the LEL in the data set with rabbit (setting [22]) is 60 mg/kg/day; in the data set with rabbit (setting [24]), 300 mg/kg/day; with dog [4] it was 196 mg/kg/day; with mouse [5], 520 mg/kg/day; in the data set on rat [6] (setting [25]), 63.9 mg/kg/day; in the data set with rat [7] (setting [27]), 400 mg/kg/day. For the same compound, the LEL with rat [7] (setting [28]) worked out at 400 mg/kg/day; with dog [8], 30.2 mg/kg/day. Besides, the LOAEL with rabbit (setting [22]) was > 300 mg/kg/day; in the data set on rabbit (setting [23]), 300 mg/kg/day; in the data set on dog [4], 196 mg/kg/day; in the data set on mouse [5], 520 mg/kg/day; in the data set on rat [6] (setting [25]), 63.9 mg/kg/day; in the data set with rat [7] (setting [27]), 400 mg/kg/day. The LOAEL with rat [7] (setting [28]) was 400 mg/kg/day; with dog [8] it was 30.2 mg/kg/day. The NEL was 10 mg/kg/day in the data set with rabbit (setting [22]); 60 mg/kg/day in the data set with rabbit (setting [24]); 43 mg/kg/day in the data set with dog [4]; 102 mg/kg/day in the data set with mouse [5]; 9.66 mg/kg/day with rat [6] (setting [26]); 100 mg/kg/day in the data set with rat [7] (setting [27]). For the same compound, the NEL in the data set with rat [7] (setting [28]) was 100 mg/kg/day; in the data set with dog [8], 3.3 mg/kg/day. Moreover, the NOAEL with rabbit (setting [22]) was ≥ 300 mg/kg/day; in the data set on rabbit (setting [24]) it was 60 mg/kg/day; in the data set on dog [4] it was 43 mg/kg/day; in the data set with mouse [5], 102 mg/kg/day; in the data set on rat [6] (setting [26]) it was 9.66 mg/kg/day; in the data set with rat [7] (setting [27]), 100 mg/kg/day. Also, the NOAEL was 100 mg/kg/day with rat [7] (setting [28]) and 3.3 mg/kg/day with dog [8].

`CN(C)[C@@H]1C(=O)C(C(N)=O)=C(O)[C@@]2(O)C(=O)C3=C(O)c4c(O)cccc4[C@@](C)(O)[C@H]3[C@H](O)[C@@H]12` [Oxytetracycline]: the LEL with rat [9] (setting [29]) was 1200 mg/kg/day; with rat [9] (setting [30]), 1200 mg/kg/day; with mouse [10] (setting [29]), 2100 mg/kg/day; in the data set on mouse [10] (setting [23]), 1320 mg/kg/day. The LOAEL was > 1500 mg/kg/day in the data set on rat [9] (setting [29]), > 1500 mg/kg/day in the data set with rat [9] (setting [30]), > 2100 mg/kg/day in the data set with mouse [10] (setting [29]) and > 2100 mg/kg/day with mouse [10] (setting [31]). The NEL in the data set with rat [9] (setting [29]) was < 1200 mg/kg/day; in the data set with rat [9] (setting [30]), < 1200 mg/kg/day; in the data set with mouse [10] (setting [29]), 1670 mg/kg/day; in the data set with mouse [10] (setting [23]), < 1320 mg/kg/day. Further, the NOAEL with rat [9] (setting [29]) is ≥ 1500 mg/kg/day; in the data set with rat [9] (setting [30]) it was ≥ 1500 mg/kg/day; in the data set with mouse [10] (setting [29]) it was ≥ 2100 mg/kg/day; in the data set on mouse [10] (setting [31]), ≥ 2100 mg/kg/day.

On to `Cc1ccccc1CO[C@@H]1C[C@@]2(C(C)C)CC[C@]1(C)O2` [Cinmethylin], for which the lowest-observed-adverse-effect level (LOAEL) with rat [11] (systemic / pathology microscopic / kidney / nephropathy) was 150 mg/kg/day; in the data set on rat [12], > 50 mg/kg/day; in the data set on dog [13] it was 75 mg/kg/day. Besides, the NOAEL is 5 mg/kg/day in the data set with rat [11] (systemic / pathology microscopic / kidney / nephropathy + systemic / organ weight / liver / relative to body weight + systemic / organ …), ≥ 50 mg/kg/day in the data set on rat [12] and 7.5 mg/kg/day in the data set on dog [13]. The values for the LEL in the data set with rat [11] (setting [32]), in the data set with rat [12] and with dog [13] were 1.5 mg/kg/day, 1.5 mg/kg/day and 75 mg/kg/day, respectively. The NEL in the data set on rat [11] (setting [32]) is < 1.5 mg/kg/day; in the data set with rat [12] it was < 1.5 mg/kg/day; in the data set with dog [13], 7.5 mg/kg/day.

As for `CC(C)CCCCCOC(=O)c1nc(Cl)c(Cl)c(N)c1Cl` [Picloram-isoctyl], in the data set on rat [14], the LEL came to 220 mg/kg/day, the LOAEL turned out to be 220 mg/kg/day, the NEL is 73 mg/kg/day and the NOAEL was 73 mg/kg/day.

On to `Cc1ccc(N(C)C)cc1` [N,N,4-Trimethylaniline], for which the LEL is 125 mg/kg/day in the data set on rat [15] (setting [33]); 62.5 mg/kg/day in the data set on rat [15] (setting [34]); 15 mg/kg/day in the data set with mouse [16] (setting [36]); 6 mg/kg/day in the data set on mouse [17]; 6 mg/kg/day with rat [18]. Also, the LOAEL is > 1000 mg/kg/day with rat [15] (setting [33]); > 1000 mg/kg/day in the data set on rat [15] (setting [34]); > 250 mg/kg/day in the data set with mouse [16] (setting [35]); 6 mg/kg/day with mouse [17]; > 60 mg/kg/day with rat [18]. For the same compound, the NEL in the data set on rat [15] (setting [33]) was 62.5 mg/kg/day; in the data set on rat [15] (setting [34]), < 62.5 mg/kg/day; with mouse [16] (setting [36]), < 15 mg/kg/day; with mouse [17], < 6 mg/kg/day; in the data set on rat [18], < 6 mg/kg/day. The NOAEL in the data set with rat [15] (setting [33]) was ≥ 1000 mg/kg/day; in the data set with rat [15] (setting [34]), ≥ 1000 mg/kg/day; in the data set with mouse [16] (setting [35]), ≥ 250 mg/kg/day; in the data set with mouse [17], < 6 mg/kg/day; in the data set on rat [18], ≥ 60 mg/kg/day.
